Test results reported in patent US9943525B2, “Composition for reducing cell senescence comprising Rho-kinase inhibitor and use thereof” (Samsung Electronics Co., Ltd., priority 2014, dated 2018).
“Also recorded” adds a separate entry of the source.

Tested on: wound tissue of old (19 months old) male C57BL/6J mice
Test: immunohistochemistry and Masson's trichrome staining of wound tissue sections
Format: in vivo, mouse
Conditions: 10 μM in 30% Pluronic gel topical daily
Protocol: To further test whether ROCK inhibitor can promote cutaneous wound healing in old (19 months old) male mice (C57BL/6J mice), four full-thickness punch-biopsy wounds (8 mm in diameter)(four wound sites/mouse, five mice/group) were created on the dorsal skin of mouse, 0.5 mL 10 μM Y-27632 in 30% Pluronic gel (Pluronic F-127 Sigma, P2443-1KG) was applied to wounds every day, and then covered the wounds with Telfa sponges (Kendall Health Care, Mansfield, Mass., USA). DMSO was used as a control. All animal studies were reviewed and approved by the […] Animal Care and Use Committee of SKKU School of Medicine (SUSM). SUSM is an Association for Assessment and Accreditation of Laboratory Animal Care international accredited facility and abides by the Institute for Laboratory Animal Research guide. Wounds were photographed for 10 days. Immunohistochemistry analyses were performed on 5 μm paraffin embedded sections as described previously (Lin et. al., 2004. Developmental Biology 270, 474-486). Primary antibodies used for immunohistochemistry were mouse anti-α-smooth muscle actin (Sigma, F3777-2ML, 1:500), and mouse anti-PCNA (Santa Cruz Biotechnology, SC-56, 1:500). Secondary antibodies used for immunohistochemistry were EnVisionTM Detection System (DAKO, […]). Masson's trichrome staining was performed according to the manufacturer's instructions (Polysciences Inc., Warrington Pa., USA). An immunohistochemical analysis was carried out to investigate the mechanism underlying the wound-healing process. […] FIG. 24 represents an immunohistochemical experimental result showing that Y-27632 treatment plays an important role in wound healing in old mouse (19 months old). Wound tissue sections were also subjected to Masson's trichrome staining to assess collagen deposition in the cross-sectional area of remodeled tissue.

With C[C@@H](N)[C@H]1CC[C@H](C(=O)Nc2ccncc2)CC1 [Y-27632, (1R,4R)-4-((R)-1-aminoethyl)-N-(pyridin-4-yl)cyclohexanecarboxamide] the “Masson's trichrome staining (collagen deposition)” value (DMSO: diffuse in granulation tissue, FIG. 24) was “strong in the dermis area”, the “site of proliferation by PCNA immunolabeling” value (DMSO: selective proliferation in granulation tissue, FIG. 24) was “proliferation was observed in the supra basal area of epidermis” and the “α-SMA immunoreactivity in wound area” value (control: high in granulation tissue, FIG. 24) was “diffuse in the dermis and was correlated with the appearance of collagen fibers”. The collagen thickness (relative to DMSO, P<0.01, FIG. 25) was “increased; also recorded: more dense and thicker collagen” and the “number of PCNA-positive cells in the epidermis” value (vs control group, P<0.01, FIG. 26) was “higher”.
